Measurements published in patent US20180118721A1, “PYRIMIDINE DERIVATIVES” (Merck Patent GmbH, priority 2015, published 2018).

How the values were obtained:
[1] = biological target: T1, humanMTH1 (aminoacids 42 to 197) (Homo sapiens, UniProt P36639); assay: Binding affinities and kinetics on MTH1 surfaces by surface plasmon resonance (SPR); details: on MTH1
T1 construct: humanMTH1 (aminoacids 42 to 197); His tag at the N-terminus; purchased Abnova ab99390; host or cells: E. coli

[2] = Microsomal stability (intrinsic clearance), mouse; assay type: in vitro ADME; details: mouse liver microsomes, 0.5 mg/ml protein, Clint
Excerpt: A microsomal stability assay is used to measure in vitro clearance (Clint). The assay involves measuring the rate of disappearance of a compound due to its intrinsic attitude to be metabolized (“intrinsic” meaning that the disappearance is not affected by other properties like permeability, binding etc. that play a role when quantifying in vivo clearance). The microsomal stability (intrinsic clearance, Clint) and thus metabolic stability is generally given as μl/min/mg protein. It can be visualized as the volume of solution that 1 mg of microsomes is able to clear of the compound in one minute.
A Tecan Genesis workstation (RSP 150/8) was used for to perform the microsomal incubations. Analysis was carried out using a Waters ACQUITY UPLC system coupled to an ABSciex API3000 mass spectrometer. Data analysis was performed using Assay Explorer (Symyx).
Column: Acquity UPLC BEH C18, 2.1×50 mm, 1.7 μm (Waters) Mobile phases: A=0.1% formic acid in water; B=acetonitrile
Flow rate: 0.750 mL/min; Detection: ESI, MRM; Injection: 10 μL; Column temperature: 50° C.
• Potassium phosphate buffer: 0.05 M potassium phosphate buffer pH 7.4 containing 1 mM MgCl2 • NADPH (nicotinamide adenine dinucleotide phosphate): 22.5 mg NADPH-Na4 in 1.8 ml potassium phosphate buffer • Acetonitrile: 50 Vol % acetonitrile (1 volume acetonitrile, 1 volume water) • DMSO: 20 Vol % DMSO in water • Stock solution of 20 mg/ml human or mouse liver microsomes (protein)/ml in phosphate buffer • Stock solution of 10 mM compound in 100% DMSO
Dilution of test compounds was done in 2 steps starting from a 10 mM stock solution of the respective compound in 100% DMSO. First 4 μl stock solution was added to 196 μl of 20 Vol % DMSO. In a second step, 10 μl of the first dilution were added to 1590 μl potassium phosphate buffer to achieve a final concentration of 1.25 μM in the final compound dilution. Thus, the amount of organic solvent in the assay was kept to a minimum (<1%).
The human or mouse liver microsome (protein) solution to be used in the assay was prepared by mixing 750 μl stock solution (20 mg/ml) and 2250 μl potassium phosphate buffer to a final concentration of 5 mg/ml.
Incubation was carried out on a 96 deep well incubation plate. 160 μl per well of the final compound dilution were transferred onto the incubation plate. Four samples of each compound dilution were assayed. 20 μl/well liver microsome solution was added to each well and the samples were then preincubated for 5 min at 37° C. and 800 rpm agitation. Two reference compounds (verapamil and dextromethorphan) were used in parallel in every experiment and for each species (human or mouse microsomes) to ensure system performance and for comparison.
On a separate stop plate, 160 μl acetonitrile were added per well.
After preincubation, i.e. at time t1=0 minutes, 18 μl samples of incubated compound solution and were transferred and added per well (containing acetonitrile) on the stop plate to prevent a reaction (0 minutes control samples, 4 samples per compound). Equally, 18 μl samples of incubated reference compound solution were transferred and added per well (containing acetonitrile) on the stop plate at time t1=0 minutes and again after 30 minutes (t4), solubility and chemical stability of the compound were checked. […]

With CNc1cc(-c2cccc(Cl)c2Cl)nc(N)n1 [TH-287, reference compound] the residence time ([1]; calculated on the basis of the KD values) was < 1 min, the residence time ([1]; value in brackets) was 0.9 min and the Microsomal stability mouse [2] was 444 μl/min/mg prot.
